Article PMC8147781, “Discovery of Pyrrolidine-2,3-diones as Novel Inhibitors of P. aeruginosa PBP3” (Antibiotics, 2021)
Values after ≈ are worked out from the molar mass of the structure shown.

What was measured:
[1] = molecular target: T1, PBP3 of P. aeruginosa (PaPBP3) (Pseudomonas aeruginosa, UniProt G3XD46); test: FP-Bocillin FL competition assay; assay type: binding; details: 30 min preincubation before Bocillin FL, 37 °C; for IC50: read-out: IC50 Determination with PaPBP3, FP-Bocillin FL Assay
T1 construct: P. aeruginosa PBP3 (amino acids 40 to 563); His-tag; made in house; host or cells: E. coli BL21 (DE3) Rosetta, plasmid pET41_PBP-3
Protocol: Bocillin FL is a fluorescent penicillin V derivate used as a competitor for PBP inhibitors.
Fluorescence polarisation (FP) experiments were carried out as described before. To determine the binding of Bocillin FL to PBP, 200 nM of ^PaPBP3 was incubated for 30 min with 100 nM of Bocillin FL (Thermo Fisher Scientific, Waltham, MA, USA). The fluorescence polarisation signal of free Bocillin FL was monitored in a Pherastar microplate reader (BMG Labtech, Ortenberg, Germany) in the polarisation mode with Ex/Em: 485/520 nm excitation and emission filters. Millipolarisation (mP) units were calculated using the MARS data analysis software v30.40.R2 (BMG Labtech, Ortenberg, Germany). All the experiments were done in Sorensen buffer at 37 °C using flat-bottom, black 96-well plates. […] Bocillin FL was diluted in Sorensen buffer and added to the reaction and directly measured for 30 min at 37 °C. The FP was continuously measured in the presence and absence of compound and enzyme. […] The estimated IC50 values were established by sigmoidal nonlinear regression, using Prims v.8 software.

[2] = molecular target: T1, PBP3 of P. aeruginosa (PaPBP3); test: S2dfluo fluorescence transpeptidase assay; assay type: biochemical; details: for IC50: 300 nM PaPBP3, 30 min preincubation, 37 °C, read-out: IC50 Determination with PaPBP3, S2dfluo Assay; for inhibition at 100 µM: read-out: PBP3 Inhibition at 100 µM (%)
Protocol: The assays were carried out in the presence of 5% DMSO and 0.01% Triton X100 to avoid the formation of colloidal structures and adsorption of protein and/or compounds to surfaces. The Z’-factor determined for the assay was 0.73 ± 0.28, indicating the suitability and robustness of the assay for high throughput screening (HTS) (Figure 1B,C).
The activity of soluble ^PaPBP3 (300 nM) was measured in the presence of 0.8 mM S2d, 1 mM D-alanine and 0.5 mM mBBr for 25 min by monitoring the increase in the fluorescence intensity of mBBr at Ex/Em: 394/490 nm using an Infinite M1000 microplate reader (Tecan, Männedorf, Switzerland). To test the effect of inhibitors, 100 µM or 0.8 to 100 µM of compounds diluted in 96% DMSO were incubated for 30 min and 450 rpm with 300 nM soluble PBP3. The incubation period was set to improve the binding of non-covalent inhibitors and 0.01% Triton X100 (Sigma-Aldrich, Taufkirchen, Germany) was added to prevent aggregation of compounds. The enzyme reaction was started by adding a substrate mix of 0.8 mM S2d and […]. The enzyme, compound and substrate mix were mixed 1:1, pipetted with a Liquidator 96 (Melter Toledo, Gießen, Germany) and the fluorescence intensity was directly monitored with an Infinite M1000 microplate reader (Tecan) at Ex/Em: 394/490 nm. The assay was performed in black, flat-bottom 96-well microplates (Greiner Bio-One, Kremsmünster, Austria) at 37 °C in Sorensen Phosphate Buffer (57 mM Na2HPO4 and 10 mM KH2PO4, pH 7.5 + 0.01% Triton X-100). The velocity of the PBP3 reaction was calculated in the presence of each concentration of compound and the velocity values were used to estimate IC50 by sigmoidal nonlinear regression, using Prism v.9 software (San Diego, CA, USA) and the velocity of the reaction at each concentration.

[3] = system: T-lymphoblast CCRF-CEM cell line; test: Cytotoxicity assay (PrestoBlue), CCRF-CEM; details: CC50, 72 h
Protocol: (§1) We finally tested the cytotoxicity of the compounds against four eukaryotic cell lines (Table 2 and Table S5), NRK-52E, an epithelial kidney cell line of Rattus norvegicus; Hep G2, an human epithelial liver cell line; and two suspension cell lines: CCRF-CEM, a T lymphoblast; and H9, a cutaneous T lymphocyte cell line.
(§2) Cell lines stored at −120 °C were thawed to 37 °C and resuspended in 10 mL of medium pre-warmed to 37 °C. Cells were pelleted at 300× g for 10 min, and then resuspended in fresh medium, seeded in a T-75 culture flask, and placed in a CO2 incubator (37 °C with 5% CO2 tension). Once the cells reached approximately 70–80% confluency, they were then passaged regularly. The adherent cell lines NRK52E, HepG2 and Huh 7 were washed once with 10 mL DPBS and detached with Trypsin-EDTA for 5 to 7 min and resuspended in 15 mL of the appropriate medium. The suspension cell line CCRF-CEM were diluted and resuspended in fresh RPMI 1640 PAN medium. To calculate the cell density, the cell resuspensions were diluted 1:6 with DPBS. Equal volumes of cell suspension and Trypan Blue were mixed and gently loaded into a haemocytometer (INCYTO, 31056 Republic of Korea). In each experiment, cell concentrations were adjusted to reach a concentration of 2.5 × 10^3 cell/well for NRK52E, 5 × 10^3 cell/well for HepG2, 6.2 × 10^4 cell/well for CCRF-CEM and 3 × 10^3 for H9. The cells were incubated with decreasing concentration of compounds (1 µL in 96% DMSO) for 72 h at 37 °C with 5% CO2 tension. Cycloheximide, a cytotoxic compound that interferes with the translocation step in eukaryotic protein synthesis was used as a control for the experiments. The assay was carried out in flat-bottom, transparent 96-well plates. Cell viability was determined using the PrestoBlue reagent (Thermo Fisher Scientific, Waltham, MA, USA) according to the manufacture’s protocol. First, 10× PrestoBlue was added to each well to obtain a 1× solution, and incubated at 37 °C for 45 min. Then, fluorescence was measured at Ex/Em: 550/595 nm using a ClarioStar microplate reader (BMG Labtech). Cytotoxicity was determined as the percentage of the difference in absorbance of the untreated sample to the treated sample. CC50 was calculated using the values obtained in each concentration using the sigmoidal dose-response by Prism v.8. The media used in each cell line is detailed in Table S6.

[4] = system: H9, cutaneous T lymphocyte cell line; test: Cytotoxicity assay (PrestoBlue), H9; details: CC50, 72 h
Protocol: as §1, §2

[5] = system: Hep G2, epithelial liver cell line; test: Cytotoxicity assay (PrestoBlue), HepG2; details: CC50, 72 h
Protocol: as §1, §2

[6] = system: NRK-52E, epithelial kidney cell line; test: Cytotoxicity assay (PrestoBlue), NRK52E; details: CC50, 72 h
Protocol: as §1, §2

[7] = system: K. pneumoniae clinical isolate; test: MIC broth microdilution, K. pneumoniae; assay type: cell-based; details: control compounds
Protocol: (§3) MIC determination was performed via standard broth microdilution according to the Clinical & Laboratory Standards institute guidelines. Overnight colonies grown on BD-Columbia agar with 5% Sheep Blood (Becton Dickinson, Franklin Lakes, NJ, USA), were diluted in Mueller Hinton Broth 2 cation adjusted (MH+) medium (Thermo Fisher Scientific) to a concentration of 5 × 10^5 CFU/mL. Serial dilutions (1:2) of test compounds were incubated at 37 °C with 5 × 10^4 bacteria in a final volume of 100 μL. Sterile and growth controls in the presence of 1% DMSO and PMBN if the case, and the positive controls, aztreonam (AZT) and tigecycline (TIG) were included in the experiments (Table S4). The MICs were determined visually after 18 h at 37 °C and confirmed by the addition of 10% PrestoBlue (ThermoFisher Scientific) reagent according to the manufacture’s protocol. The fluorescence signal of PrestoBlue reagent was measured at Ex/Em: 550/595 nm after 30 min incubation at 37 °C using at a ClarioStar microplate reader (BMG Labtech). PrestoBlue reduction occurs in the presence of living cells and consequently turns red in colour and is highly fluorescent.

S. pneumoniae = test: MIC broth microdilution, S. pneumoniae; assay type: cell-based; details: Streptococcus pneumoniae, 18 h; PMBN 0 µg/mL, control compounds; read-out: MIC (µM) S. pneumoniae
Protocol: as §3

[8] = system: P. aeruginosa PAO1 (wild-type strain); test: MIC broth microdilution, P. aeruginosa PAO1; assay type: cell-based, Pseudomonas aeruginosa
From the text: (§4) The results presented above implied that seven pyrrolidine-2,3-dione derivatives inhibited the activity of ^PaPBP3 in vitro. Consequently, we were very interested in investigating the potential of these compounds to affect the growth of P. aeruginosa. Two P. aeruginosa bacterial strains (the wild-type PAO1 and the isogenic ΔmexB ΔmexX ΔmexCD-oprJ efflux pump mutant) were used to determine the MIC and the potential role of the main P. aeruginosa efflux systems in compound uptake. To increase the antibacterial sensitivity of the tested P. aeruginosa isolates to the potential inhibitors, we performed MIC experiments in the presence and absence of a sub-MIC concentration (4 µg/mL) of the outer membrane permeabilising polymyxin B nonapeptide (PMBN). […] Thus, we concluded that the physicochemical properties of the pyrrolidine-2,3-dione compounds were perhaps not yet favourable enough to cross the P. aeruginosa cell envelope without a permeabiliser because of their high hydrophobicity.
(§5) The wild-type P.aeruginosa PAO1 and the isogenic P. aeruginosa K2896 ΔmexBΔmexXYΔmexCD-oprJ isolates were used to determine the MIC in the presence and absence of PMBN [48].
as §3

S. aureus 133 = test: MIC broth microdilution, S. aureus; assay type: cell-based; details: Staphylococcus aureus, 133, 18 h; PMBN 0 µg/mL, control compounds
Protocol: as §3

B. subtilis 168 = test: MIC broth microdilution, B. subtilis; assay type: cell-based; details: Bacillus subtilis, 168, 18 h; PMBN 0 µg/mL, control compounds
Protocol: as §3

E. coli Neumann = test: MIC broth microdilution, E. coli; assay type: cell-based; details: Escherichia coli; PMBN 0 µg/mL, control compounds; read-out: MIC (µM) E. coli Newmann
Protocol: as §3

A. baumannii ATCC15308 = test: MIC broth microdilution, A. baumannii; assay type: cell-based; details: Acinetobacter baumannii, control compounds
Protocol: as §3

[9] = system: P. aeruginosa K2896 ΔmexBΔmexXYΔmexCD-oprJ; test: MIC broth microdilution, P. aeruginosa K2896 efflux mutant; assay type: cell-based, Pseudomonas aeruginosa
From the text: as §4, §5, §3

T1 sequence (G3XD46 40-563): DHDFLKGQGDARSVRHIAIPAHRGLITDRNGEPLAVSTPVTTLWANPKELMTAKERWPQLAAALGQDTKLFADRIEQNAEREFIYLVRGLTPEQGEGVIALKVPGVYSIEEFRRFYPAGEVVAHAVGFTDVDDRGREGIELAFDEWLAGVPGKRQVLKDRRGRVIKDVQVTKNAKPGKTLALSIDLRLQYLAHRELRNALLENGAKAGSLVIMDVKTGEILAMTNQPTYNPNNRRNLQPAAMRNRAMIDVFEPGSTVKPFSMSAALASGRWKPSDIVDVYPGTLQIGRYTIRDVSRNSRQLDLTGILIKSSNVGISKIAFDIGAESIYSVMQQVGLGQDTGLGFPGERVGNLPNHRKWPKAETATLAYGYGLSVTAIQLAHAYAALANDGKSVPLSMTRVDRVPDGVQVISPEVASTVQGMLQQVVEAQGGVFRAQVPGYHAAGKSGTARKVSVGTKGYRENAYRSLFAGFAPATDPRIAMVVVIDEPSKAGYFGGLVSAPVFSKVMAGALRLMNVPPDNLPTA

Structure (SMILES): COc1ccc(CN2C(=O)/C(=C(/C)O)C(=O)[C@@H]2COC(C)(C)C)c(OC)c1 [Compound 8]
- IC50 [1]: 93 ± 18 µM
- IC50 [2]: 66 ± 16 µM

Structure (SMILES): CCCCCCOc1cccc(N2C(=O)C(O)=C(C(=O)c3ccccc3)C2c2ccc(C(C)C)cc2)c1 (stereo not shown) [Compound 2]
- IC50 [1]: 17 ± 9 µM
- IC50 [2]: 4 ± 6 µM
- inhibition at 100 µM [2]: 101 ± 0.4%

Structure (SMILES): C[C@@H]1C[C@@H]([C@H](O)CC2CC(=O)NC(=O)C2)C(=O)[C@@H](C)C1 [Cycloheximide, reference compound]
- Cytotoxicity CCRF-CEM [3]: 0.66 ± 0.5 µM
- Cytotoxicity effect (µM) T-lymphocyte H9 [4]: 0.53 ± 0.3 µM
- Cytotoxicity effect (µM) Epithelial liver HepG2 [5]: 1.34 ± 0.7 µM
- Cytotoxicity effect (µM) Epithelial kidney NRK52E [6]: 0.20 ± 0.2 µM

Structure (SMILES): CCOC(=O)c1ccc(N2C(=O)C(O)=C(S(=O)(=O)c3ccccc3)C2c2ccc(C(C)C)cc2)cc1 (stereo not shown) [Compound 4]
- IC50 Determination with PaPBP3, FP-Bocillin FL Assay [1]: failed to inhibit Bocillin FL binding
- IC50 [1]: > 100 µM
- IC50 [2]: 24 ± 20 µM
- inhibition at 100 µM [2]: 101%

Structure (SMILES): CN(C)c1cc(NC(=O)CNC(C)(C)C)c(O)c2c1C[C@H]1C[C@H]3[C@H](N(C)C)C(O)=C(C(N)=O)C(=O)[C@@]3(O)C(O)=C1C2=O [Tygecyclin, tigecycline, reference compound]
- MIC ([7]; PMBN 0 µg/mL): 0.9 µM (≈ 0.527 µg/mL)
- MIC ([7]; PMBN 50 µg/mL): 0.4 µM (≈ 0.234 µg/mL)
- MIC (S. pneumoniae): 0.1 µM (≈ 0.0586 µg/mL)
- MIC ([8]; Pseudomonas aeruginosa, PAO1, PMBN 0 µg/mL (absence of PMBN)): > 4 µM
- MIC (µM) against P. aeruginosa PAO1 ([8]; wild-type strain, with 4 µg/mL PMBN): 0.4 µM (≈ 0.234 µg/mL)
- MIC (S. aureus 133): 0.2 µM (≈ 0.117 µg/mL)
- MIC (B. subtilis 168): 0.2 µM (≈ 0.117 µg/mL)
- MIC (E. coli Neumann): 0.4 µM (≈ 0.234 µg/mL)
- MIC (A. baumannii ATCC15308; ATCC15308, PMBN 0 µg/mL): 0.9 µM (≈ 0.527 µg/mL)
- MIC (A. baumannii ATCC15308; ATCC15308, PMBN 50 µg/mL): 0.4 µM (≈ 0.234 µg/mL)
- MIC ([9]; Pseudomonas aeruginosa, read-out: MIC (µM) P. aeruginosa K2896): 0.8 µM (≈ 0.469 µg/mL)
- MIC (µM) against P. aeruginosa K28926 ([9]; ΔmexB, ΔmexX, ΔmexCD-oprJ, with 4 µg/mL PMBN): 0.2 µM (≈ 0.117 µg/mL)
